Data taken from PubChem BioAssay (NCI).
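Step 1: Grow cells in 96-well plates. Step 2: Expose to compound for 48 hours at 5 concentrations. Step 3: Interpolate endpoints linearly; if unreached, use highest concentration. TGI: concentration producing complete growth inhibition.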

What was measured:
Assay in all cases: NCI tumour cell line growth inhibition, 48 h
M14 melanoma = system: M14 melanoma
K-562 leukemia = system: K-562 leukemia
U251 CNS = system: U251 CNS
KM12 colon = system: KM12 colon
SF-268 CNS = system: SF-268 CNS
HOP-62 NSCLC = system: HOP-62 NSCLC
SF-539 CNS = system: SF-539 CNS
T-47D breast = system: T-47D breast
OVCAR-8 ovarian = system: OVCAR-8 ovarian
HOP-92 NSCLC = system: HOP-92 NSCLC
COLO 205 colon = system: COLO 205 colon
HCT-15 colon = system: HCT-15 colon
UACC-257 melanoma = system: UACC-257 melanoma
SK-OV-3 ovarian = system: SK-OV-3 ovarian
SR leukemia = system: SR leukemia
IGROV1 ovarian = system: IGROV1 ovarian
HCT-116 colon = system: HCT-116 colon
HT29 colon = system: HT29 colon
UO-31 renal = system: UO-31 renal
A549 NSCLC = system: A549 NSCLC
MDA-N = system: MDA-N
HS 578T breast = system: HS 578T breast
TK-10 renal = system: TK-10 renal
CAKI-1 renal = system: CAKI-1 renal
OVCAR-3 ovarian = system: OVCAR-3 ovarian
NCI-H226 lung = system: NCI-H226 lung
MALME-3M melanoma = system: MALME-3M melanoma
SNB-19 CNS = system: SNB-19 CNS
NCI-H23 lung = system: NCI-H23 lung
ACHN renal = system: ACHN renal
SK-MEL-28 melanoma = system: SK-MEL-28 melanoma
RXF 393 renal = system: RXF 393 renal
OVCAR-4 ovarian = system: OVCAR-4 ovarian
DU-145 prostate = system: DU-145 prostate
SW-620 colon = system: SW-620 colon
MDA-MB-435 = system: MDA-MB-435
CCRF-CEM leukemia = system: CCRF-CEM leukemia
MOLT-4 leukemia = system: MOLT-4 leukemia
LOX IMVI melanoma = system: LOX IMVI melanoma
UACC-62 melanoma = system: UACC-62 melanoma
MCF7 breast = system: MCF7 breast
SN12C renal = system: SN12C renal
HL-60(TB) leukemia = system: HL-60(TB) leukemia
NCI/ADR-RES ovarian = system: NCI/ADR-RES ovarian
SNB-75 CNS = system: SNB-75 CNS
SK-MEL-2 melanoma = system: SK-MEL-2 melanoma
MDA-MB-231 breast = system: MDA-MB-231 breast
SF-295 CNS = system: SF-295 CNS
786-0 renal = system: 786-0 renal
SK-MEL-5 melanoma = system: SK-MEL-5 melanoma
HCC-2998 colon = system: HCC-2998 colon
A498 renal = system: A498 renal
PC-3 prostate = system: PC-3 prostate
NCI-H460 lung = system: NCI-H460 lung
OVCAR-5 ovarian = system: OVCAR-5 ovarian
EKVX NSCLC = system: EKVX NSCLC

In the case of CC(CCC#N)(CCC#N)C(=O)CC(O)(C(F)(F)F)C(F)(F)F, the TGI (M14 melanoma) is reported as 4.81 µM, the TGI (K-562 leukemia) is reported as 5.87 µM and the TGI (U251 CNS) is reported as 33.2 µM. The TGI (KM12 colon) was 34.2 µM, the TGI (SF-268 CNS) was greater than 58.8 µM and the TGI (HOP-62 NSCLC) was 38.7 µM. For the same compound, the TGI (SF-539 CNS) was 8.75 µM, the TGI (T-47D breast) was 16.2 µM and the TGI (OVCAR-8 ovarian) was 16.6 µM. For the same compound, the TGI (HOP-92 NSCLC) was 15.6 µM, the TGI (COLO 205 colon) was 4.9 µM and the TGI (HCT-15 colon) was 10.6 µM. It also gave a TGI (UACC-257 melanoma) of 21.1 µM, a TGI (SK-OV-3 ovarian) greater than 100 µM and a TGI (SR leukemia) of 3.77 µM. For the same compound, the TGI (IGROV1 ovarian) was 29.3 µM, the TGI (HCT-116 colon) was 7.57 µM and the TGI (HT29 colon) was 28.7 µM. The TGI (UO-31 renal) was 13.1 µM, the TGI (A549 NSCLC) was 30.1 µM and the TGI (MDA-N) was 4.88 µM. For the same compound, the TGI (HS 578T breast) was 60.6 µM, the TGI (TK-10 renal) was 25.1 µM and the TGI (CAKI-1 renal) was 8.32 µM. The TGI (OVCAR-3 ovarian) was 7.73 µM, the TGI (NCI-H226 lung) was 45.3 µM and the TGI (MALME-3M melanoma) was 12 µM. The TGI (SNB-19 CNS) was 53 µM, the TGI (NCI-H23 lung) was 19.6 µM and the TGI (ACHN renal) was 20.2 µM. It also gave a TGI (SK-MEL-28 melanoma) of 27.2 µM, a TGI (RXF 393 renal) of 5.03 µM and a TGI (OVCAR-4 ovarian) of 8.01 µM. The TGI (DU-145 prostate) was 26.1 µM, the TGI (SW-620 colon) was 6.9 µM and the TGI (MDA-MB-435) was 72.7 µM. The TGI (CCRF-CEM leukemia) was 7.84 µM, the TGI (MOLT-4 leukemia) was 2.8 µM and the TGI (LOX IMVI melanoma) was 8.14 µM. It also gave a TGI (UACC-62 melanoma) of 19.8 µM, a TGI (MCF7 breast) of 21.2 µM and a TGI (SN12C renal) of 23.5 µM. It also gave a TGI (HL-60(TB) leukemia) of 3.99 µM, a TGI (NCI/ADR-RES ovarian) of 22.7 µM and a TGI (SNB-75 CNS) of 34.5 µM. The TGI (SK-MEL-2 melanoma) was 89.2 µM, the TGI (MDA-MB-231 breast) was 14.2 µM and the TGI (SF-295 CNS) was 41 µM. It also gave a TGI (786-0 renal) of 4.72 µM, a TGI (SK-MEL-5 melanoma) of 28.5 µM and a TGI (HCC-2998 colon) of 31.3 µM. The TGI (A498 renal) was 40 µM, the TGI (PC-3 prostate) was 28.4 µM and the TGI (NCI-H460 lung) was 39 µM. For the same compound, the TGI (OVCAR-5 ovarian) was 32.4 µM and the TGI (EKVX NSCLC) was 44.1 µM.
